14 compounds from patent publication US20080214577A1, “New Compounds 320” (AstraZeneca AB, priority 2006, published 2008) can be followed below.

SMILES strings stand for the structures.

One may read the IC50 as the concentration needed to halve the response being measured.

The experiment deals with T1, human β-Secretase (Homo sapiens, UniProt P56817).
T1 construct: The soluble part of the human β-Secretase (AA 1-AA 460) was cloned; made in house
T1 sequence (P56817 22-460): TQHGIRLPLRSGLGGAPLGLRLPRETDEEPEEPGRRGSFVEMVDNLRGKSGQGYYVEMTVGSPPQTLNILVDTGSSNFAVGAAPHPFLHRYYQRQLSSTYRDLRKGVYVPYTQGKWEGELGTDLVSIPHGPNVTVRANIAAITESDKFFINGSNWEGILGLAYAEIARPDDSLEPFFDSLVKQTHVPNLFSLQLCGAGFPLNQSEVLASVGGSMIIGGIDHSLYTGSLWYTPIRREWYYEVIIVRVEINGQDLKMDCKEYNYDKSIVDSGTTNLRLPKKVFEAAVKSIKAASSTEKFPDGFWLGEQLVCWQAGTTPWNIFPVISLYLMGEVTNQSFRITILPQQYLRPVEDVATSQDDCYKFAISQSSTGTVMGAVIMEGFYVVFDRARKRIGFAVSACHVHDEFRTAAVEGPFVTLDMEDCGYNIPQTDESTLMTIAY
The experiment in a line: TR-FRET assay. To be noted: soluble human β-Secretase (sBACE-Fc), substrate (Europium)[…](Qsy7) 100 nM, pH 4.5. The class given is biochemical. On the procedure: The enzyme used in the IGEN Cleavage-, Fluorescent-, TR-FRET- and BiaCore assays is described as follows: The soluble part of the human β-Secretase (AA 1-AA 460) was cloned into the […]-Fc10-1-IRES-GFP-neoK mammalian expression vector. The gene was fused to the Fc domain of IgG1 (affinity tag) and stably cloned into HEK 293 cells. Purified sBACE-Fc is stored in Tris buffer, pH 9.2 and has a purity of 95%. TR-FRET Assay Enzyme was diluted to 6 μg/mL and the substrate ([…]7) to 200 nM in reaction buffer (NaAcetate, chaps, triton x-100, EDTA pH 4.5). Compounds were diluted to the desired concentration in dimethyl sulfoxide (final dimethyl sulfoxide concentration in assay is 5%). […] Enzyme (9 μL) and 1 μL of compound in dimethyl sulfoxide was added to the plate, mixed and pre-incubated for 10 min. Substrate (10 μL) was added and the reaction proceeded in the dark for 15 min at RT. The reaction was stopped with the addition of 7 μL NaAcetate, pH 9.
In general terms: Time-resolved FRET reads energy transfer from a long-lived donor to a nearby acceptor.
As for `COc1ccc(C2(c3cccc(-c4cccnc4)c3)N=C(N)N3CC(F)(F)CN=C32)cc1` (centres unmarked) [Example 40, 3,3-Difluoro-8-(4-methoxyphenyl)-8-(3-pyridin-3-ylphenyl)-2,3,4,8-tetrahydroimidazo[1,5-a]pyrimidin-6-amine 0.75 acetate], the IC50 was 76 nM. In other words, the double-digit nanomolar range.
As for `COc1ccc(C2(c3ccc(F)c(-c4cncnc4)c3)N=C(N)N3CC(F)(F)CN=C32)cc1C` (centres unmarked) [Example 88, 3,3-Difluoro-8-(4-fluoro-3-(pyrimidin-5-yl)phenyl)-8-(4-methoxy-3-methylphenyl)-2,3,48-tetrahydroimidazo[1,5-a]pyrimidin-6-amine acetate], the IC50 is 92 nM. This IC50 and that of the compound before are within 1.5-fold of each other.
Next, `COc1ccc(C2(c3cccc(-c4cncnc4)c3)N=C(N)N3CC(OC)CN=C32)cc1` (mixture of isomers) [Example 32, 3-Methoxy-8-(4-methoxyphenyl)-8-(3-pyrimidin-5-ylphenyl)-2,3,4,8-tetrahydroimidazo[1,5-a]pyrimidin-6-amine]: 571 nM.
On to `COc1ccc(C2(c3cccc(-c4cncnc4)c3)N=C(N)N3CC(F)CN=C32)cc1` (mixture of isomers) [Example 50, 3-Fluoro-8-(4-methoxyphenyl)-8-(3-pyrimidin-5-ylphenyl)-2,3,4,8-tetrahydroimidazo[1,5-a]pyrimidin-6-amine 4.0 acetate], for which half-maximal inhibition (IC50) required 59 nM.
`NC1=NC(c2ccncc2)(c2cccc(-c3cncc(F)c3)c2)C2=NCC(F)(F)CN12` (centres unmarked) [Example 47, 3,3-Difluoro-8-[3-(5-fluoropyridin-3-yl)phenyl]-8-pyridin-4-yl-2,3,4,8-tetrahydroimidazo[1,5-a]pyrimidin-6-amine acetate] came in with a half-maximal inhibitory concentration (IC50) of 59 nM.
Next, `COc1ccc(C2(c3cccc(-c4cccnc4F)c3)N=C(N)N3CC(F)(F)CN=C32)cc1` (centres unmarked) [Example 42, 3,3-Difluoro-8-[3-(2-fluoropyridin-3-yl)phenyl]-8-(4-methoxyphenyl)-2,3,48-tetrahydroimidazo[1,5-a]pyrimidin-6-amine 0.75 acetate]: 29 nM; `COc1ccc(C2(c3cccc(-c4cncnc4)c3)N=C(N)N3CC(S(C)(=O)=O)CN=C32)cc1` (mixture of isomers) [Example 28, 8-(4-Methoxyphenyl)-3-(methylsulfonyl)-8-(3-pyrimidin-5-ylphenyl)-2,3,4,8-tetrahydroimidazol[1,5-a]pyrimidin-6-amine 2.0 acetate]: 253 nM; `COc1ccc(C2(c3ccc(F)c(-c4cccnc4F)c3)N=C(N)N3CC(F)(F)CN=C32)cc1C` (centres unmarked) [Example 87, 3,3-Difluoro-8-(4-fluoro-3-(2-fluoropyridin-3-yl)phenyl)-8-(4-methoxy-3-methylphenyl)-2,3,4,8-tetrahydroimidazo[1,5-a]pyrimidin-6-amine acetate]: 41 nM.
`CN(C)C(=O)c1cccc(C2(c3cccc(-c4cccnc4F)c3)N=C(N)N3CC(F)(F)CN=C32)c1` (centres unmarked) [Example 69, 3-{6-Amino-3,3-difluoro-8-[3-(2-fluoropyridin-3-yl)phenyl]-2,3,4,8-tetrahydroimidazo[1,5-a]pyrimidin-8-yl}-N,N-dimethylbenzamide] returned an IC50 of 2300 nM.
Next, `NC1=NC(c2ccncc2)(c2cccc(-c3cccnc3F)c2)C2=NCC(F)(F)CN12` (centres unmarked) [Example 44, 3,3-Difluoro-8-[3-(2-fluoropyridin-3-yl)phenyl]-8-pyridin-4-yl-2,3,4,8-tetrahydroimidazo[1,5-a]pyrimidin-6-amine 0.75 acetate]: 120 nM.
Regarding `CN(C)C(=O)c1ccc(C2(c3cccc(-c4cccnc4F)c3)N=C(N)N3CC(F)(F)CN=C32)cc1` (centres unmarked) [Example 70, 4-{6-Amino-3,3-difluoro-8-[3-(2-fluoropyridin-3-yl)phenyl]-2,3,4,8-tetrahydroimidazo[1,5-a]pyrimidin-8-yl}-N,N-dimethylbenzamide], the IC50 worked out at 2100 nM.
To `COc1ccc(C2(c3cccc(-c4cncc(OC)c4)c3)N=C(N)N3CC(F)(F)CN=C32)cc1` (centres unmarked) [Example 41, 3,3-Difluoro-8-(4-methoxyphenal)-8-[3-(5-methoxypyridin-3-yl)phenyl]-2,3,4,8-tetrahydroimidazo[1,5-a]pyrimidin-6-amine 0.75 acetate] belongs 30 nM; to `COc1ccc(C2(c3cccc(-c4cncnc4)c3)N=C(N)N3CC(O)CN=C32)cc1` (mixture of isomers) [Example 30, 6-Amino-8-(4-methoxyphenyl)-8-(3-pyrimidin-5-ylphenyl)-2,3,4,8-tetrahydroimidazo[1,5-a]pyrimidin-3-ol], 119 nM; to `COc1cncc(-c2cccc(C3(c4ccncc4)N=C(N)N4CC(F)(F)CN=C43)c2)c1` (centres unmarked) [Example 43, 3,3-Difluoro-8-[3-(5-methoxypyridin-3-yl)phenyl]-8-pyridin-4-yl-2,3,4,8-tetrahydroimidazo[1,5-a]pyrimidin-6-amine acetate], 41 nM.
